Measurements taken from ChEMBL document CHEMBL3352232, “Discovery of pyridyl sulfonamide 11-beta-hydroxysteroid dehydrogenase type 1 (11β-HSD1) inhibitors for the treatment of metabolic disorders” (Bioorg Med Chem Lett, 2014).
Converted amounts (≈) assume the structure as drawn.

Columns and labels:
[1] = molecular target: 11-beta-hydroxysteroid dehydrogenase 1 (Homo sapiens, UniProt P28845); assay: Inhibition of human 11-betaHSD1 by biochemical assay
[2] = Aqueous solubility of the compound; format: physicochemical
[3] = Stability in human liver microsomes assessed as compound remaining after 10 mins; format: ADME; conditions: read-out: Stability
[4] = Stability in rat liver microsomes assessed as compound remaining after 10 mins; format: ADME; conditions: read-out: Stability
[5] = Stability in mouse liver microsomes assessed as compound remaining after 10 mins; format: ADME; conditions: read-out: Stability
[6] = molecular target: 11-beta-hydroxysteroid dehydrogenase 1 (Mus musculus, UniProt P50172); assay: Inhibition of mouse 11-betaHSD1 by biochemical assay
11-beta-hydroxysteroid dehydrogenase 1 (Mus musculus, UniProt P50172), sequence (P50172 whole entry): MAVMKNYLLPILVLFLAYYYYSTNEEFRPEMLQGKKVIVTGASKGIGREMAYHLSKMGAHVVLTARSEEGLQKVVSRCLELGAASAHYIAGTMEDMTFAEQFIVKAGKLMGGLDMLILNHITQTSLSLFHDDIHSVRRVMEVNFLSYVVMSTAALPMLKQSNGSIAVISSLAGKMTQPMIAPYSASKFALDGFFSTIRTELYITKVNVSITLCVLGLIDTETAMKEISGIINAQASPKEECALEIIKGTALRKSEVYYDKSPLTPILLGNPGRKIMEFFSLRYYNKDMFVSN

11-beta-hydroxysteroid dehydrogenase 1 (Homo sapiens, UniProt P28845), sequence (P28845 whole entry): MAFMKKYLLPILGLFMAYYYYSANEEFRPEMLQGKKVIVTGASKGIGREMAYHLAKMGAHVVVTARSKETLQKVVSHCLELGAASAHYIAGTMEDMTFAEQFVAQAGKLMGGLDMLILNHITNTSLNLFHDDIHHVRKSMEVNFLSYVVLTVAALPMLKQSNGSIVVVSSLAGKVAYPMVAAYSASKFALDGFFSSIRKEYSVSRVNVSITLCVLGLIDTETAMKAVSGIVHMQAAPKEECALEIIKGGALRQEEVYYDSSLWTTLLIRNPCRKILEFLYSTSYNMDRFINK

Structure (SMILES)	IC50 [1] [µM]	solubility [2] [µg/mL]	remaining at 10 min [3] [%]	remaining at 10 min [4] [%]	remaining at 10 min [5] [%]	IC50 [6]
CC1CCN(C(=O)c2ccc(CSc3ccc(Cl)cc3)cc2)CC1	0.16					
N#Cc1ccc(-c2cccc(S(=O)(=O)N3CCC(N4CCOCC4)C3)n2)cc1 (centres undefined)	0.16	14 (≈ 35.1 µM)				
CC1CCN(S(=O)(=O)c2cccc(-c3cccc(Cl)c3)n2)CC1	0.31	1 (≈ 2.85 µM)				
CC1CCN(S(=O)(=O)c2cccc(-c3ccc(Cl)cc3)n2)CC1	0.055	1 (≈ 2.85 µM)				
CC1CCN(S(=O)(=O)c2cccc(-c3ccc(C#N)cc3)n2)CC1	0.049	2 (≈ 5.86 µM)				
N#Cc1ccc(-c2cccc(S(=O)(=O)N3CCC(C4CCCCC4)CC3)n2)cc1	0.009	< 1				
N#Cc1ccc(-c2cccc(S(=O)(=O)N3CCC(N4CCCC4)CC3)n2)cc1	0.98	270 (≈ 681 µM)				
O=S(=O)(c1cccc(-c2ccccc2)n1)N1CCC(N2CCOCC2)CC1	0.03	48 (≈ 124 µM)	62	4	7	Not Active
